Experimental findings from patent US9725449B2, “Tricyclic compounds as anticancer agents” (BRISTOL-MYERS SQUIBB COMPANY, priority 2015, dated 2017) are described below.

For orientation: IC50 means the concentration needed to halve the response being measured.

The assay concerns the target BRD4 (Homo sapiens, UniProt O60885). Kind of assay: Time resolved fluorescence resonance energy transfer (TR-FRET) binding assay, bromodomain BRD4. Conditions: one of the FRET assays described; read-out: FRET BRD4 IC50. Background: Time-resolved FRET reads energy transfer from a long-lived donor to a nearby acceptor.
Consider `[2H]C([2H])([2H])c1nnn(C)c1-c1cnc2c3c(OC)ncc(S(C)(=O)=O)c3n(C(c3cccc(F)c3)C3CCOCC3)c2c1` (single isomer, unassigned) [Example 87, 8-[(3-Fluorophenyl)(oxan-4-yl)methyl]-10-methanesulfonyl-13-methoxy-5-[4-(^2H3)methyl-1-methyl-1H-1,2,3-triazol-5-yl]-3,8,12-triazatricyclo[7.4.0.0^2,^7]trideca-1(13),2(7),3,5,9,11-hexaene], for which the IC50 is < 1500 nM.

On to `[2H]C([2H])([2H])c1nnn(C)c1-c1cnc2c3cnc(C(C)(C)O)cc3n([C@H](c3ccccc3F)C3CCOCC3)c2c1` [Example 332], for which the 50% inhibitory concentration (IC50) was < 10 nM.

On to `Cc1nnn(C)c1-c1cnc2c3ccc(N4CCN(C)CC4)nc3n([C@H](c3ccccc3F)C3CCOCC3)c2c1` [Example 231, 5-(Dimethyl-1H-1,2,3-triazol-5-yl)-8-[(S)-(2-fluorophenyl)(oxan-4-yl)methyl]-11-(4-methylpiperazin-1-yl)-3,8,10-triazatricyclo[7.4.0.0^2,^7]trideca-1(13),2(7),3,5,9,11-hexaene], for which the 50% inhibitory concentration (IC50) is < 10 nM.

Take `[2H]C([2H])([2H])c1nnn(C)c1-c1cnc2c3c(OCC)ncc(S(C)(=O)=O)c3n(C(c3ncccc3F)C3CCOCC3)c2c1` (stereo not drawn) [Example 69, 13-Ethoxy-8-[(3-fluoropyridin-2-yl)(oxan-4-yl)methyl]-10-methanesulfonyl-5-[4-(^2H3)methyl-1-methyl-1H-1,2,3-triazol-5-yl]-3,8,12-triazatricyclo[7.4.0.0^2,^7]trideca-1(13),2(7),3,5,9,11-hexaene]: the IC50 is < 1500 nM.

In the case of `[2H]C([2H])([2H])c1nnn(C)c1-c1cnc2c3c(OC)ncc(S(C)(=O)=O)c3n([C@H](c3ccccc3)C3CCC(F)(F)CC3)c2c1` [Example 81, 8-[(S)-(4,4-Difluorocyclohexyl)(phenyl)methyl]-10-methanesulfonyl-13-methoxy-5-[4-(^2H3)methyl-1-methyl-1H-1,2,3-triazol-5-yl]-3,8,12-triazatricyclo[7.4.0.0^2,^7]trideca-1(13),2(7),3,5,9,11-hexaene], the IC50 was < 1 nM.

Take `[2H]C([2H])([2H])c1nnn(C)c1-c1cnc2c3c(OC)ncc(S(C)(=O)=O)c3n(C(c3ncccc3F)C3CCC(F)(F)CC3)c2c1` (stereo not drawn) [Example 72, 8-[(4,4-Difluorocyclohexyl)(3-fluoropyridin-2-yl)methyl]-10-methanesulfonyl-13-methoxy-5-[4-(^2H3)methyl-1-methyl-1H-1,2,3-triazol-5-yl]-3,8,12-triazatricyclo[7.4.0.0^2,^7]trideca-1(13),2(7),3,5,9,11-hexaene]: the IC50 was < 10 nM.

Consider `[2H]C([2H])([2H])c1nnn(C)c1-c1cnc2c3c(OC)nc(C(C)(C)O)cc3n([C@H](c3ncccc3F)C3CCOCC3)c2c1` [Example 309, 2-{8-[(S)-(3-Fluoropyridin-2-yl)(oxan-4-yl)methyl]-13-methoxy-5-[4-(^2H3)methyl-1-methyl-1H-1,2,3-triazol-5-yl]-3,8,12-triazatricyclo[7.4.0.0^2,^7]trideca-1(9),2(7),3,5,10,12-hexaen-11-yl}propan-2-ol], for which the IC50 was < 10 nM.

As to `[2H]C([2H])([2H])c1nnn(C)c1-c1cnc2c3cnc(S(C)(=O)=O)cc3n([C@H](c3ccccc3)C3CCOCC3)c2c1` [Example 201, 11-Methanesulfonyl-5-[4-(^2H3)methyl-1-methyl-1H-1,2,3-triazol-5-yl]-8-[(S)-oxan-4-yl(phenyl)methyl]-3,8,12-triazatricyclo[7.4.0.0^2,^7]trideca-1(9),2(7),3,5,10,12-hexaene], the half-maximal inhibitory concentration (IC50) is < 10 nM.

For `CCCC(c1ccc(F)cn1)n1c2cc(-c3c(C)nnn3C)ncc2c2ncc(C(C)(C)O)cc21` (single isomer, unassigned) [Example 376], the concentration for half-maximal inhibition (IC50) was < 10 nM.

Turning to `COc1ncc(S(C)(=O)=O)c2c1c1ncc(-c3c(C)nnn3C)cc1n2C(c1ccccc1)C1CCC(F)(F)CC1` (single isomer, unassigned) [Example 90, 8-[(4,4-Difluorocyclohexyl)(phenyl)methyl]-5-(dimethyl-1H-1,2,3-triazol-5-yl)-10-methanesulfonyl-13-methoxy-3,8,12-triazatricyclo[7.4.0.0^2,^7]trideca-1(13),2(7),3,5,9,11-hexaene], the IC50 is < 10 nM.

In the case of `Cc1nnn(C)c1-c1cnc2c3cnc(Cl)cc3n(C(c3ncccc3F)C3CCOCC3)c2c1` (stereo not drawn) [Example 316], the half-inhibitory concentration (IC50) is < 10 nM.

Consider `[2H]C([2H])([2H])c1nnn(C)c1-c1cnc2c3c(OC)ncc(S(C)(=O)=O)c3n(C(c3ccc(F)cc3)C3CCC(F)(F)CC3)c2c1` (stereo in doubt) [Example 96, 8-[(R)-(4,4-Difluorocyclohexyl)(4-fluorophenyl)methyl]-10-methanesulfonyl-13-methoxy-5-[4-(^2H3)methyl-1-methyl-1H-1,2,3-triazol-5-yl]-3,8,12-triazatricyclo[7.4.0.0^2,^7]trideca-1(13),2(7),3,5,9,11-hexaene], for which the IC50 is < 1500 nM.

For `[2H]C([2H])([2H])c1nnn(C)c1-c1cnc2c3c(OCC4CC4)ncc(S(C)(=O)=O)c3n([C@H](c3ccc(F)cc3)C3CCOCC3)c2c1` [Example 78, 13-(Cyclopropylmethoxy)-8-[(S)-(4-fluorophenyl)(oxan-4-yl)methyl]-10-methanesulfonyl-5-[4-(^2H3)methyl-1-methyl-1H-1,2,3-triazol-5-yl]-3,8,12-triazatricyclo[7.4.0.0^2,^7]trideca-1(13),2(7),3,5,9,11-hexaene], the half-maximal inhibitory concentration (IC50) is < 1 nM.

In the case of `COc1nnn(C)c1-c1cnc2c3ccc(-c4c(OC)nnn4C)nc3n([C@H](c3ccccc3)C3CCOCC3)c2c1` [Example 166, 5,11-Bis(4-methoxy-1-methyl-1H-1,2,3-triazol-5-yl)-8-[(S)-oxan-4-yl(phenyl)methyl]-3,8,10-triazatricyclo[7.4.0.0^2,^7]trideca-1(9),2(7),3,5,10,12-hexaene], the IC50 is < 10 nM.

Turning to `[2H]C([2H])([2H])c1nnn(C)c1-c1cnc2c3c(OC)cncc3n([C@H](c3ccccc3)C3CCOCC3)c2c1` [Example 300, 13-Methoxy-5-[4-(^2H3)methyl-1-methyl-1H-1,2,3-triazol-5-yl]-8-[(S)-oxan-4-yl(phenyl)methyl]-3,8,11-triazatricyclo[7.4.0.0^2,^7]trideca-1(9),2(7),3,5,10,12-hexaene], the 50% inhibitory concentration (IC50) is < 1 nM.

On to `Cc1nnn(C)c1-c1cnc2c3ccc(N4CCOCC4)nc3n([C@H](c3ccccc3)C3CCOCC3)c2c1` [Example 178, 5-(Dimethyl-1H-1,2,3-triazol-5-yl)-11-(morpholin-4-yl)-8-[(S)-oxan-4-yl(phenyl)methyl]-3,8,10-triazatricyclo[7.4.0.0^2,^7]trideca-1(9),2(7),3,5,10,12-hexaene], for which the IC50 is < 1 nM.

For the molecule `COc1ccc2c3ncc(-c4c(C)nnn4C)cc3n(C(c3ccccc3F)C3CCOCC3)c2n1` (racemic) [Example 28, 5-(Dimethyl-1H-1,2,3-triazol-5-yl)-8-[(2-fluorophenyl)(oxan-4-yl)methyl]-11-methoxy-3,8,10-triazatricyclo[7.4.0.0^2,^7]trideca-1(13),2(7),3,5,9,11-hexaene], the concentration for half-maximal inhibition (IC50) is < 10 nM.

On to `CNS(=O)(=O)c1ccc2c3ncc(-c4c(C)nnn4C)cc3n([C@H](c3ccccc3)C3CCOCC3)c2n1` [Example 199, 5-(Dimethyl-1H-1,2,3-triazol-5-yl)-N-methyl-8-[(S)-oxan-4-yl(phenyl)methyl]-3,8,10-triazatricyclo[7.4.0.0^2,^7]trideca-1(9),2(7),3,5,10,12-hexaene-11-sulfonamide], for which the IC50 was < 10 nM.

With `[2H]C([2H])([2H])c1nnn(C)c1-c1cnc2c3c(OC)ncc(S(C)(=O)=O)c3n([C@H](c3ccccc3F)C3CCOCC3)c2c1` [Example 51, 8-[(S)-(2-Fluorophenyl)(oxan-4-yl)methyl]-10-methanesulfonyl-13-methoxy-5-[4-(^2H3)methyl-1-methyl-1H-1,2,3-triazol-5-yl]-3,8,12-triazatricyclo[7.4.0.0^2,^7]trideca-1(13),2(7),3,5,9,11-hexaene], the concentration for half-maximal inhibition (IC50) was < 1 nM.

Turning to `COc1nnn(C)c1-c1cnc2c3ccc(-c4c(OC)nnn4C)nc3n([C@H](c3ccccc3F)C3CCOCC3)c2c1` [Example 253, 8-[(S)-(2-Fluorophenyl)(oxan-4-yl)methyl]-5,11-bis(4-methoxy-1-methyl-1H-1,2,3-triazol-5-yl)-3,8,10-triazatricyclo[7.4.0.0^2,^7]trideca-1(13),2(7),3,5,9,11-hexaene], the IC50 was < 10 nM.

`[2H]C([2H])([2H])c1nnn(C)c1-c1cnc2c3ccc(N(C)C)nc3n([C@H](c3ccccc3F)C3CCOCC3)c2c1` [Example 238, 8-[(S)-(2-Fluorophenyl)(oxan-4-yl)methyl]-N,N-dimethyl-5-[4-(^2H3)methyl-1-methyl-1H-1,2,3-triazol-5-yl]-3,8,10-triazatricyclo[7.4.0.0^2,^7]trideca-1(13),2(7),3,5,9,11-hexaen-11-amine]: the IC50 was < 10 nM.

For `[2H]C([2H])([2H])c1onc(C)c1-c1cnc2c3cnc(C(C)(C)O)cc3n([C@H](c3ccc(F)cc3)C3CCOCC3)c2c1` [Example 225, 2-{8-[(S)-(4-Fluorophenyl)(oxan-4-yl)methyl]-5-[5-(^2H3)methyl-3-methyl-1,2-oxazol-4-yl]-3,8,12-triazatricyclo[7.4.0.0^2,^7]trideca-1(13),2(7),3,5,9,11-hexaen-11-yl}propan-2-ol], the IC50 was < 1 nM.

As to `Cc1nnn(C)c1-c1cnc2c3ccc(N4CCN(C(=O)N(C)C)CC4)nc3n([C@H](c3ccccc3F)C3CCOCC3)c2c1` [Example 268, 4-[5-(Dimethyl-1H-1,2,3-triazol-5-yl)-8-[(S)-(2-fluorophenyl)(oxan-4-yl)methyl]-3,8,10-triazatricyclo[7.4.0.0^2,^7]trideca-1(13),2(7),3,5,9,11-hexaen-11-yl]-N,N-dimethylpiperazine-1-carboxamide], the half-inhibitory concentration (IC50) is < 1 nM.

Regarding `[2H]C([2H])([2H])c1nnn(C)c1-c1cnc2c3ccc(N4CCN(C([2H])([2H])[2H])CC4)nc3n([C@H](c3ccccc3)C3CCOCC3)c2c1` [Example 249, 5-[4-(^2H3)Methyl-1-methyl-1H-1,2,3-triazol-5-yl]-11-[4-(^2H3)methylpiperazin-1-yl]-8-[(S)-oxan-4-yl(phenyl)methyl]-3,8,10-triazatricyclo[7.4.0.0^2,^7]trideca-1(13),2(7),3,5,9,11-hexaene], the IC50 was < 10 nM.
